The subject of series [1] is K562. Briefly: Growth inhibition of human K562 cells incubated for 2 days by CCK8 assay. Format: functional, cell-based. To be noted: K562, 48 h. (Formazan colour is commonly taken as a measure of viable cells.)
The target in series [2] is T1, von Hippel-Lindau disease tumor suppressor/Tyrosine-protein kinase ABL1/Breakpoint cluster region protein (Homo sapiens, UniProt P00519+P11274+P40337). The experiment in a line: Protac activity against VHL/BCR-ABL in human K562 cells assessed as induction of BCR-ABL degradation by Western blot analysis. Format: cell-based. For orientation: Immunoblotting shows a protein as a band on a membrane.
Target sequence in this assay (P00519 whole entry): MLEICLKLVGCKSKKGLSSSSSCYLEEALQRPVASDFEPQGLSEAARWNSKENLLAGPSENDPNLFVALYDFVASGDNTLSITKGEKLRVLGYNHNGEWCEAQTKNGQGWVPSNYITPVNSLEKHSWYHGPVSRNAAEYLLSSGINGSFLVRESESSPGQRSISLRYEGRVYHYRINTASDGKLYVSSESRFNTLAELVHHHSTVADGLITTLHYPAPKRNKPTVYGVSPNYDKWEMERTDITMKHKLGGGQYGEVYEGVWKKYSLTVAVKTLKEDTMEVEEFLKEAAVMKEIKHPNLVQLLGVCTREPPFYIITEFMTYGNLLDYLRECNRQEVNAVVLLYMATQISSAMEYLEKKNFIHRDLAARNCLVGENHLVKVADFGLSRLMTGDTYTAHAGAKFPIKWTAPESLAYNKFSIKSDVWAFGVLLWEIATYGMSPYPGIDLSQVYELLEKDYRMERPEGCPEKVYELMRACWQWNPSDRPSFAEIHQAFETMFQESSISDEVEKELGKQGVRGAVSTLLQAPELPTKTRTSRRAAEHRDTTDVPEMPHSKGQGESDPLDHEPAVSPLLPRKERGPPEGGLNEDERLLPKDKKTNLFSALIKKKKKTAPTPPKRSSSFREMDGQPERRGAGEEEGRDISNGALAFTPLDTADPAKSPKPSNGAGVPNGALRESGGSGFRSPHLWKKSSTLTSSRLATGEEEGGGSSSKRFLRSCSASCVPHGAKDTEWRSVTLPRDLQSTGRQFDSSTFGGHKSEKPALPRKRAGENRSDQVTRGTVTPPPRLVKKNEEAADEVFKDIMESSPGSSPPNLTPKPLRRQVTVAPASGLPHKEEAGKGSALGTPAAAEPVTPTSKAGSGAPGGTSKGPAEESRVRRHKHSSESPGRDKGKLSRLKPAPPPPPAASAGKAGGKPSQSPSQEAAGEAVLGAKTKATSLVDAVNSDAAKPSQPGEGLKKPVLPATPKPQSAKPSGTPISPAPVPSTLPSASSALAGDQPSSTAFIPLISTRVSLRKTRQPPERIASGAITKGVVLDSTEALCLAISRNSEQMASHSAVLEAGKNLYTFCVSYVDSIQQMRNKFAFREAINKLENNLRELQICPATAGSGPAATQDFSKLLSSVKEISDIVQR
Target sequence in this assay (P11274 whole entry): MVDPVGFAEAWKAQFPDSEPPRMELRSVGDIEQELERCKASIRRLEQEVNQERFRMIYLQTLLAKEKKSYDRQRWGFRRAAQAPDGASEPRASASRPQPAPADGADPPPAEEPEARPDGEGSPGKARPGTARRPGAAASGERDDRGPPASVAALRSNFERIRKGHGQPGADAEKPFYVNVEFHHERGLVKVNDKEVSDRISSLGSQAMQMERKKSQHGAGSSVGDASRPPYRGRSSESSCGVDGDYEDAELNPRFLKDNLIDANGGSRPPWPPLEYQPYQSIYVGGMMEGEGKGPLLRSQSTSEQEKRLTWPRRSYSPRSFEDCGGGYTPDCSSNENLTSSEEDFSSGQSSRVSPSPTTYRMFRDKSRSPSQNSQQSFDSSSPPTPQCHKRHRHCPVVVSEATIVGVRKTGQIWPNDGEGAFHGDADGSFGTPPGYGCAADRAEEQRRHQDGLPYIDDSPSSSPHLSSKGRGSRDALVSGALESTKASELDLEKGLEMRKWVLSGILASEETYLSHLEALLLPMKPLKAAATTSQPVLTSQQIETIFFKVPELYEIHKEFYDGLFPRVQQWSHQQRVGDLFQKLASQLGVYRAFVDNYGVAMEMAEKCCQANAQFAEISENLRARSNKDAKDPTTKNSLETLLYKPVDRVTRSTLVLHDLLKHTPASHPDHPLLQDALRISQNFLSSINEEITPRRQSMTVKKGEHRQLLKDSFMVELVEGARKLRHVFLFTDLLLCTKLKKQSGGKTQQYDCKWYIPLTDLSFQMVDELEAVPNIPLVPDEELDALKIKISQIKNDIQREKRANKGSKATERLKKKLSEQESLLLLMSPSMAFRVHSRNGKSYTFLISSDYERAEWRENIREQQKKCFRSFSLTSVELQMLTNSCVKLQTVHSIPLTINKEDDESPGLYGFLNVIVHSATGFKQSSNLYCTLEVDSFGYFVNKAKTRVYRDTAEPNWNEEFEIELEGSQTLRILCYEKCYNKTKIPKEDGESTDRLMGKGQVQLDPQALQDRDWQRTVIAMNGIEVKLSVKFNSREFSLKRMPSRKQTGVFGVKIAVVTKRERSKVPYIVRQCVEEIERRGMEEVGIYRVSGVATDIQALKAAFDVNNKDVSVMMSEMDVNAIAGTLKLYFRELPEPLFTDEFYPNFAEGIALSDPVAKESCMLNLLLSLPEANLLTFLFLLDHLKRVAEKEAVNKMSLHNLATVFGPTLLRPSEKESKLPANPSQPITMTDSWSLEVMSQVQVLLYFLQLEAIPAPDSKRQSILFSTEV
Target sequence in this assay (P40337 whole entry): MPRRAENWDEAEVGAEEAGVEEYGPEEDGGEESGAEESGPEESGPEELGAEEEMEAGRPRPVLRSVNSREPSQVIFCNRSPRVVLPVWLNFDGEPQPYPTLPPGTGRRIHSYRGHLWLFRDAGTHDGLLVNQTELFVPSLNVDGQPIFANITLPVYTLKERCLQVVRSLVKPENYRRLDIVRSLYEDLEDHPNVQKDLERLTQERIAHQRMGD

Series [3] concerns K562. Briefly: Growth inhibition of human K562 cells assessed as reduction in cell density at 20 times IC50 incubated for 12 hrs followed by drug wash-out and incubation in drug-free medium up to 144 hrs by CCK8 assay. In kind it is functional, cell-based.
The target of series [4] is T1, von Hippel-Lindau disease tumor suppressor/Tyrosine-protein kinase ABL1/Breakpoint cluster region protein. The experiment in a line: Protac activity against VHL/BCR-ABL in human K562 cells assessed as induction of BCR-ABL degradation at 1 to 100 nM by Western blot analysis. In kind it is cell-based.
Target sequence in this assay (P00519 whole entry, looked up): as the sequence (P00519 whole entry) above
Target sequence in this assay (P11274 whole entry, looked up): as the sequence (P11274 whole entry) above
Target sequence in this assay (P40337 whole entry, looked up): as the sequence (P40337 whole entry) above
The target is the same in series [5]. The experiment in a line: Protac activity against VHL/BCR-ABL in NOD/SCID mouse xenografted with luciferse expressing human K562 cells assessed as induction of BCR-ABL degradation at 15 mg/kg, ip QD for 4 days by Western blotting analysis. Format: functional, organism-based. In general terms: In xenograft studies the graft and the host belong to different species.
Target sequence in this assay (P00519 whole entry, looked up): as the sequence (P00519 whole entry) above
Target sequence in this assay (P11274 whole entry, looked up): as the sequence (P11274 whole entry) above
Target sequence in this assay (P40337 whole entry, looked up): as the sequence (P40337 whole entry) above

Series [6] has as its target T2, Bcr/Abl fusion protein (Homo sapiens) (UniProt P00519+P11274). The experiment in a line: Inhibition of BCR-ABL in human K562 cells assessed as reduction in STAT5 phosphorylation at 1 to 100 nM by Western blot analysis. In kind it is cell-based.
Series [7] deals with T2, Bcr/Abl fusion protein (Homo sapiens). Briefly: Inhibition of BCR-ABL phosphorylation in human K562 cells at 1 to 100 nM by Western blot analysis. Format: cell-based.
Series [8] has as its target T1, von Hippel-Lindau disease tumor suppressor/Tyrosine-protein kinase ABL1/Breakpoint cluster region protein. The experiment in a line: Induction of ternary complex formation between VHL and BCR-ABL (unknown origin) expressed in HEK293 cells expressing N-terminal BCR-ABL LgBit fusion protein and N-terminal SmBit-VHL fusion protein at 1 uM incubated for 1 hr by NanoBit technology based luciferase complementation assay. In kind it is cell-based.
Target sequence in this assay (P00519 whole entry, looked up): as the sequence (P00519 whole entry) above
Target sequence in this assay (P11274 whole entry, looked up): as the sequence (P11274 whole entry) above
Target sequence in this assay (P40337 whole entry, looked up): as the sequence (P40337 whole entry) above

For a further series, the system named is Mus musculus. The experiment in a line: Inhibition of BCR-ABL phosphorylation in NOD/SCID mouse xenografted with luciferse expressing human K562 cells at 5 to 15 mg/kg, ip QD for 4 days by Western blotting analysis. Format: functional, organism-based.
The test system of series [9] is K562. The experiment in a line: Induction of cell death in human K562 cells assessed as reduction in cell viability at 20 times IC50 incubated for 12 hrs followed by drug wash-out and incubation in drug-free medium up to 144 hrs by CCK8 assay. Format: functional, cell-based.
Series [10] deals with K562. Briefly: Antitumor activity against luciferse expressing human K562 cells xenografted in NOD/SCID mouse assessed as attenuation of tumor progression at 5 to 15 mg/kg, ip QD for 12 days by serial volumetric analysis. In kind it is functional, organism-based.
The subject of series [11] is K562. Briefly: Antitumor activity against luciferse expressing human K562 cells xenografted in NOD/SCID mouse assessed as attenuation of tumor progression at 5 mg/kg, ip QD for 12 days by serial volumetric analysis. In kind it is functional, organism-based.
Series [12] in a line: Permeability in human Caco2 cells at 10 uM incubated for 120 mins by LC-MS/MS analysis. In kind it is ADME, cell-based. As to conditions: caco-2, 2 h.
The target in series [13] is T1, von Hippel-Lindau disease tumor suppressor/Tyrosine-protein kinase ABL1/Breakpoint cluster region protein. The experiment in a line: Induction of ternary complex formation between VHL and BCR-ABL (unknown origin) expressed in HEK293 cells expressing N-terminal BCR-ABL LgBit fusion protein and N-terminal SmBit-VHL fusion protein incubated for 1 hr by NanoBit technology based luciferase complementation assay. Format: cell-based.
Target sequence in this assay (P00519 whole entry, looked up): as the sequence (P00519 whole entry) above
Target sequence in this assay (P11274 whole entry, looked up): as the sequence (P11274 whole entry) above
Target sequence in this assay (P40337 whole entry, looked up): as the sequence (P40337 whole entry) above

The target of series [14] is Tyrosine-protein kinase ABL1 (Homo sapiens) (UniProt P00519). The experiment in a line: Binding affinity to human phosphorylated ABL1 (S229 to K512 residues) expressed in mammalian expression system assessed as residual binding level at 10 uM by Kinomescan method relative to control.
Series [15] shares this target. The experiment in a line: Binding affinity to human non-phosphorylated ABL1 (S229 to K512 residues) expressed in mammalian expression system assessed as residual binding level at 10 uM by Kinomescan method relative to control.

Activity calls are given as the source filed them. The calls are words filed in the database; no cut-off is given here.

Chain of Tyrosine-protein kinase ABL1 (Homo sapiens) (P00519 whole entry, the tested form may be a part): as the sequence (P00519 whole entry) above
T2 sequence (P00519 whole entry, looked up, the tested form may be a part): as the sequence (P00519 whole entry) above
T2 sequence (P11274 whole entry, looked up, the tested form may be a part): as the sequence (P11274 whole entry) above

As usually defined, the IC50 is the concentration that gives 50% inhibition. Compound `Cc1nc(Nc2ncc(C(=O)Nc3c(C)cccc3Cl)s2)cc(N2CCN(C(=O)CCCCCOCCOCCOCCCCCC(=O)N[C@H](C(=O)N3C[C@H](O)C[C@H]3C(=O)NCc3ccc(-c4scnc4C)cc3)C(C)(C)C)CC2)n1` registered an IC50 in the series on K562 [1] of 14.9 nM.
In the series on K562 [1], `Cc1nc(Nc2ncc(C(=O)Nc3c(C)cccc3Cl)s2)cc(N2CCN(C(=O)CCCCCCCCCCCCC(=O)N[C@H](C(=O)N3C[C@H](O)C[C@H]3C(=O)NCc3ccc(-c4scnc4C)cc3)C(C)(C)C)CC2)n1` returned an IC50 of 14.4 nM.
Take `Cc1nc(Nc2ncc(C(=O)Nc3c(C)cccc3Cl)s2)cc(N2CCN(C(=O)CCOCCOCCOCCOCCC(=O)N[C@H](C(=O)N3C[C@H](O)C[C@H]3C(=O)NCc3ccc(-c4scnc4C)cc3)C(C)(C)C)CC2)n1`: the IC50 with K562 [1] was 2160 nM.
Consider `Cc1nc(Nc2ncc(C(=O)Nc3c(C)cccc3Cl)s2)cc(N2CCN(C(=O)CCOCCOCCOCCOCCOCCC(=O)N[C@H](C(=O)N3C[C@H](O)C[C@H]3C(=O)NCc3ccc(-c4scnc4C)cc3)C(C)(C)C)CC2)n1`, for which the IC50 with K562 [1] came to 1610 nM.
As a reminder, the DC50 is the concentration at which degradation of the target reaches its halfway point. With `Cc1nc(Nc2ncc(C(=O)Nc3c(C)cccc3Cl)s2)cc(N2CCN(C(=O)CCCCCCCCC(=O)N[C@H](C(=O)N3C[C@H](O)C[C@H]3C(=O)NCc3ccc(-c4scnc4C)cc3)C(C)(C)C)CC2)n1`, 14.3 nM corresponded to half-maximal inhibition in the series on K562 [1] (IC50). The DC50 in series [2] came out at 10.1 nM.
The corresponding values for `Cc1nc(Nc2ncc(C(=O)Nc3c(C)cccc3Cl)s2)cc(N2CCN(C(=O)CCCC(=O)N[C@H](C(=O)N3C[C@H](O)C[C@H]3C(=O)NCc3ccc(-c4scnc4C)cc3)C(C)(C)C)CC2)n1` are 87 nM and 40.2 nM.
Consider `Cc1nc(Nc2ncc(C(=O)Nc3c(C)cccc3Cl)s2)cc(N2CCN(C(=O)CNC(=O)CCCC(=O)N[C@H](C(=O)N3C[C@H](O)C[C@H]3C(=O)NCc3ccc(-c4scnc4C)cc3)C(C)(C)C)CC2)n1`, for which, in the series with K562 [1], the IC50 turned out to be 68.2 nM.
Same read-out and setting: under `Cc1nc(Nc2ncc(C(=O)Nc3c(C)cccc3Cl)s2)cc(N2CCN(C(=O)CCCc3cn(CCCC(=O)N[C@H](C(=O)N4C[C@H](O)C[C@H]4C(=O)NCc4ccc(-c5scnc5C)cc4)C(C)(C)C)nn3)CC2)n1` stands 12 nM.
In the series with K562 [1], `Cc1nc(Nc2ncc(C(=O)Nc3c(C)cccc3Cl)s2)cc(N2CCN(C(=O)CCCCCCCCCCCCCCC(=O)N[C@H](C(=O)N3C[C@H](O)C[C@H]3C(=O)NCc3ccc(-c4scnc4C)cc3)C(C)(C)C)CC2)n1` displayed an IC50 of 32.3 nM.
In the series with K562 [1], `Cc1nc(Nc2ncc(C(=O)Nc3c(C)cccc3Cl)s2)cc(N2CCN(C(=O)COCCOCC(=O)N[C@H](C(=O)N3C[C@H](O)C[C@H]3C(=O)NCc3ccc(-c4scnc4C)cc3)C(C)(C)C)CC2)n1` registered an IC50 of 2240 nM.
`Cc1nc(Nc2ncc(C(=O)Nc3c(C)cccc3Cl)s2)cc(N2CCN(C(=O)CCCCCCCC(=O)N[C@H](C(=O)N3C[C@H](O)C[C@H]3C(=O)NCc3ccc(-c4scnc4C)cc3)C(C)(C)C)CC2)n1` had an IC50 in the series on K562 [1] of 22.4 nM. The DC50 in series [2] stood at 37.9 nM.
Regarding `Cc1nc(Nc2ncc(C(=O)Nc3c(C)cccc3Cl)s2)cc(N2CCN(C(=O)CCCCCCC(=O)N[C@H](C(=O)N3C[C@@H](O)C[C@H]3C(=O)NCc3ccc(-c4scnc4C)cc3)C(C)(C)C)CC2)n1`, the “growth inhibition (GI)” value in the series on K562 [3] is “inactive”. In addition, the result (in series [4]; in [5]; in series [8]; with K562 [9]; in the series on K562 [10]) was inactive. For the same compound, the inhibition entry (in [6]; in [7]; in the series on Mus musculus) was “Active” each time.
Take `Cc1nc(Nc2ncc(C(=O)Nc3c(C)cccc3Cl)s2)cc(N2CCN(C(=O)CCCCCC(=O)N[C@H](C(=O)N3C[C@H](O)C[C@H]3C(=O)NCc3ccc(-c4scnc4C)cc3)C(C)(C)C)CC2)n1`: in the series on K562 [1], half-maximal inhibition (IC50) required 37.6 nM. In addition, in [2], the DC50 is 17.9 nM.
`Cc1nc(Nc2ncc(C(=O)Nc3c(C)cccc3Cl)s2)cc(N2CCN(CCCCCCOCCOCCOCCCCCC(=O)N[C@H](C(=O)N3C[C@H](O)C[C@H]3C(=O)NCc3ccc(-c4scnc4C)cc3)C(C)(C)C)CC2)n1` yielded an IC50 in the series on K562 [1] of 3.4 nM.
Turning to `Cc1nc(Nc2ncc(C(=O)Nc3c(C)cccc3Cl)s2)cc(N2CCN(C(=O)CCOCCOCCOCCC(=O)N[C@H](C(=O)N3C[C@H](O)C[C@H]3C(=O)NCc3ccc(-c4scnc4C)cc3)C(C)(C)C)CC2)n1`, the IC50 in the series with K562 [1] was determined as 3430 nM.
As for `Cc1nc(Nc2ncc(C(=O)Nc3c(C)cccc3Cl)s2)cc(N2CCN(CCO)CC2)n1` [DASATINIB], the “growth inhibition (GI)” value in the series on K562 [3] was “inactive”. This compound also displayed an IC50 with K562 [1] of 0.9 nM. Further, the outcome with K562 [11] was Active. The result with K562 [9] was inactive.
With `Cc1nc(Nc2ncc(C(=O)Nc3c(C)cccc3Cl)s2)cc(N2CCN(C(=O)CCOCCOCCC(=O)N[C@H](C(=O)N3C[C@H](O)C[C@H]3C(=O)NCc3ccc(-c4scnc4C)cc3)C(C)(C)C)CC2)n1`, half-maximal inhibition in the series with K562 [1] (IC50) was put at 670 nM.
For the compound `Cc1nc(Nc2ncc(C(=O)Nc3c(C)cccc3Cl)s2)cc(N2CCN(C(=O)COCCOCCOCC(=O)N[C@H](C(=O)N3C[C@H](O)C[C@H]3C(=O)NCc3ccc(-c4scnc4C)cc3)C(C)(C)C)CC2)n1`, the permeability result in series [12] was “Permeable”. For the same compound, the outcome in [13], in [14] and in series [15] was Active.
In the series on K562 [1], `Cc1nc(Nc2ncc(C(=O)Nc3c(C)cccc3Cl)s2)cc(N2CCN(C(=O)CCCCNC(=O)CCCCCCCCC(=O)N[C@H](C(=O)N3C[C@H](O)C[C@H]3C(=O)NCc3ccc(-c4scnc4C)cc3)C(C)(C)C)CC2)n1` came in with an IC50 of 72 nM.
In the series with K562 [1], `Cc1nc(Nc2ncc(C(=O)Nc3c(C)cccc3Cl)s2)cc(N2CCN(C(=O)CCC(=O)N[C@H](C(=O)N3C[C@H](O)C[C@H]3C(=O)NCc3ccc(-c4scnc4C)cc3)C(C)(C)C)CC2)n1` returned an IC50 of 78 nM. The DC50 in series [2] is 611 nM.
Regarding `Cc1nc(Nc2ncc(C(=O)Nc3c(C)cccc3Cl)s2)cc(N2CCN(CCCCCNC(=O)CCCCCCCCC(=O)N[C@H](C(=O)N3C[C@H](O)C[C@H]3C(=O)NCc3ccc(-c4scnc4C)cc3)C(C)(C)C)CC2)n1`, in the series with K562 [1], the IC50 was determined as 6.9 nM.
In the series with K562 [1], `Cc1nc(Nc2ncc(C(=O)Nc3c(C)cccc3Cl)s2)cc(N2CCN(C(=O)CCCCC(=O)N[C@H](C(=O)N3C[C@H](O)C[C@H]3C(=O)NCc3ccc(-c4scnc4C)cc3)C(C)(C)C)CC2)n1` registered an IC50 of 89 nM. In addition, in series [2], the DC50 came out at 34.7 nM.

Source of the values: ChEMBL document CHEMBL4414590, “Discovery of SIAIS178 as an Effective BCR-ABL Degrader by Recruiting Von Hippel-Lindau (VHL) E3 Ubiquitin Ligase” (J Med Chem, 2019).
